The target in assay [1] is T1, FLT3-D835Y (Homo sapiens, UniProt P36888, D835Y).
T1 construct: purchased Invitrogen PV3967
T1 sequence (P36888 27-993 D835Y): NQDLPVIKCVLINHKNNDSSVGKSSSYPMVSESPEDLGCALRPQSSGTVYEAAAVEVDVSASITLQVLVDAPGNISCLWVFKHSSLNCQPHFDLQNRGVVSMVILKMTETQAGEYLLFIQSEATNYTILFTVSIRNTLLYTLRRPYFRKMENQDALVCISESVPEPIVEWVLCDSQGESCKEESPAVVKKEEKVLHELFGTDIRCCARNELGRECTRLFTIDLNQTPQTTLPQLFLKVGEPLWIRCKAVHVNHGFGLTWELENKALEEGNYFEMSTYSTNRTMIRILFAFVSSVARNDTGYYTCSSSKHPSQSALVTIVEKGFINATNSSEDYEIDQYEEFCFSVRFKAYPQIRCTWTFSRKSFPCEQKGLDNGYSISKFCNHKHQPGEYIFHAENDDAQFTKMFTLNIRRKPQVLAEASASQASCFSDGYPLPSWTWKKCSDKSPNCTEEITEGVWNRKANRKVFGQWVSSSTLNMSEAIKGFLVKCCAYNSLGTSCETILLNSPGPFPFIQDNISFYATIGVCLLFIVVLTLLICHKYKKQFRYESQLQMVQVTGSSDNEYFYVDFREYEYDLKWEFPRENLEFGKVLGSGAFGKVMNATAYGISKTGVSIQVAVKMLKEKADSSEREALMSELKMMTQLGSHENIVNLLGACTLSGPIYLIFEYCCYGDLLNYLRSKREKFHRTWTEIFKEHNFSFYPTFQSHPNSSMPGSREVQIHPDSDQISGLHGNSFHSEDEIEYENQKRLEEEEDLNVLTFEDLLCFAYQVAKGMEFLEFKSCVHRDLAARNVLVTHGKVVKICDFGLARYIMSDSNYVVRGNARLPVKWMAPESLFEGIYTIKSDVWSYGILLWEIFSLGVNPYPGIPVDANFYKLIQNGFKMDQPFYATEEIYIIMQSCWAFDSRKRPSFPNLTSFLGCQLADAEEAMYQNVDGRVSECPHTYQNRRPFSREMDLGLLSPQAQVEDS
As to the kind of experiment: FLT3-D835Y recombinant enzyme kinase assay (AlphaScreen). It is filed as biochemical. As to conditions: 8 pt, GMean. The method, boiled down: (§1)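 Recombinant enzyme phosphorylated biotinylated poly(Glu4-Tyr) peptide (30 nM final) with ATP at 10 μM for FLT3-ITD and FLT3-D835Y or 100 μM for c-KIT. Phosphopeptide was detected by AlphaScreen with streptavidin donor and anti-phosphotyrosine (PY20) acceptor beads (10 μg/mL), read at 580 nm, for IC50 determination.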

Assay [2] addresses T2, c-KIT (Homo sapiens, UniProt P10721).
T2 construct: purchased Millipore 14-559K
As to the kind of experiment: c-KIT recombinant enzyme kinase assay (AlphaScreen). Format: biochemical. As to conditions: 100 ATP, 8 pt. A digest of the protocol:
as §1

The structures appear in SMILES notation.

T2 sequence (P10721 26-976): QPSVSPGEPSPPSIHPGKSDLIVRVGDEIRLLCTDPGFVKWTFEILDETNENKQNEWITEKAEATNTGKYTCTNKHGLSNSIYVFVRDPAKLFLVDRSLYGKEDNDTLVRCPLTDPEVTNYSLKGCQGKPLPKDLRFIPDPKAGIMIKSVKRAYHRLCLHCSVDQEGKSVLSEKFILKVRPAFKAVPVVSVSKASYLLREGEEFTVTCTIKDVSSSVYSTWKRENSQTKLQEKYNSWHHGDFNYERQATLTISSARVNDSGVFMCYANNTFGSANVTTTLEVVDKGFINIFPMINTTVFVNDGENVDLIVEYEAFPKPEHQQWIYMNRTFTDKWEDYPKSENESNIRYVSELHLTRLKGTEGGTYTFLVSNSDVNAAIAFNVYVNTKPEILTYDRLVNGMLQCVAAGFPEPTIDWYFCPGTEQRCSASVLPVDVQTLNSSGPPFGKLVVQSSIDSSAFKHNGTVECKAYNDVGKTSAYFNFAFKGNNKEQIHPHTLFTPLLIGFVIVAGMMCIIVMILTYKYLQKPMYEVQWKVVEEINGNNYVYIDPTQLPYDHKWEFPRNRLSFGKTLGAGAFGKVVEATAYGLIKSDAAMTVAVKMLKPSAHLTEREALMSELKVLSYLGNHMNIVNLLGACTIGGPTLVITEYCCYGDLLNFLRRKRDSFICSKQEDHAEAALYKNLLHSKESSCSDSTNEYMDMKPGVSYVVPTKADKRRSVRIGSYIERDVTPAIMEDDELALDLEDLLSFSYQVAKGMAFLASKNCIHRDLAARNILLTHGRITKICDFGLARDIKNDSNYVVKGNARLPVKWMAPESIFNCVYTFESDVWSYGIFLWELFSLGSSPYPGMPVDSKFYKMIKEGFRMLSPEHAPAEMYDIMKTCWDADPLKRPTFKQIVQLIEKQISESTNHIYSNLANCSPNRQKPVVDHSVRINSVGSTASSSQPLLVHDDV

For orientation: IC50 means the point on the concentration scale where inhibition reaches its midpoint. Take `O=C(Cc1ccc(-c2cnc3[nH]c(-c4ccnc(N5CCOCC5)c4)cc3c2)c(F)c1)Nc1cncc(C(F)(F)F)c1` [Compound P-0201, 2-[3-fluoro-4-[2-(2-morpholino-4-pyridyl)-1H-pyrrolo[2,3-b]pyridin-5-yl]phenyl]-N-[5-(trifluoromethyl)-3-pyridyl]acetamide]: the IC50 in assay [1] and in assay [2] was 0.0001 to 10 µM throughout.

In the case of `COc1ncc(NC(=O)Cc2ccc(-c3cnc(Nc4cnn(C5CC5)c4)nc3)cc2)cc1C(F)(F)F` [Compound P-0234, 2-[4-[2-[(1-cyclopropylpyrazol-4-yl)amino]pyrimidin-5-yl]phenyl]-N-[6-methoxy-5-(trifluoromethyl)-3-pyridyl]acetamide], the IC50 in assay [1] and in assay [2] was 0.0001 to 10 µM each time.

Turning to `Cn1cnc(Nc2ncc(-c3ccc(CC(=O)Nc4cc(C(F)(F)F)ccn4)cc3)cn2)c1` [Compound P-0022, 2-[4-[2-[(1-methylimidazol-4-yl)amino]pyrimidin-5-yl]phenyl]-N-[4-(trifluoromethyl)-2-pyridyl]acetamide], the concentration for half-maximal inhibition (IC50) in assay [1] and in assay [2] was 0.0001 to 10 µM throughout.

As for `CCn1cc(Nc2ncc(-c3ccc(CC(=O)Nc4cnc(C)c(C(F)(F)F)c4)cc3F)cn2)cn1` [Compound P-0248, 2-[4-[2-[(1-ethylpyrazol-4-yl)amino]pyrimidin-5-yl]-3-fluoro-phenyl]-N-[6-methyl-5-(trifluoromethyl)-3-pyridyl]acetamide], the IC50 in assay [1] and in assay [2] was 0.0001 to 10 µM each time.

On to `Cn1cc(Nc2ncc(-c3cc(F)c(CC(=O)Nc4cc(C(F)(F)F)ccn4)cc3F)cn2)cn1` [Compound P-0019, 2-[2,5-difluoro-4-[2-[(1-methylpyrazol-4-yl)amino]pyrimidin-5-yl]phenyl]-N-[4-(trifluoromethyl)-2-pyridyl]acetamide], for which the IC50 in assay [1] and in assay [2] was 0.0001 to 10 µM each time.

With `CCn1cc(Nc2ncc(-c3ccc(CC(=O)Nc4cnc(C)c(C(F)(F)F)c4)cc3)cn2)cn1` [Compound P-0254, 2-[4-[2-[(1-ethylpyrazol-4-yl)amino]pyrimidin-5-yl]phenyl]-N-[6-methyl-5-(trifluoromethyl)-3-pyridyl]acetamide], the IC50 in assay [1] and in assay [2] was 0.0001 to 10 µM throughout.

On to `Cn1cc(Nc2ncc(-c3ccc(CC(=O)Nc4cc(C(F)(F)F)ccn4)cc3F)cn2)cn1` [Compound P-0017, 2-[3-fluoro-4-[2-[(1-methylpyrazol-4-yl)amino]pyrimidin-5-yl]phenyl]-N-[4-(trifluoromethyl)-2-pyridyl]acetamide], for which the half-maximal inhibitory concentration (IC50) in assay [1] and in assay [2] was 0.0001 to 10 µM each time.

In the case of `COc1ncc(NC(=O)Cc2ccc(-c3cnc4[nH]c(C#CC(C)(C)O)cc4c3)cc2)cc1C(F)(F)F` [Compound P-0214, 2-(4-(2-(3-hydroxy-3-methylbut-1-yn-1-yl)-1H-pyrrolo[2,3-b]pyridin-5-yl)phenyl)-N-(6-methoxy-5-(trifluoromethyl)pyridin-3-yl)acetamide], the half-inhibitory concentration (IC50) in assay [1] and in assay [2] was 0.0001 to 10 µM each time.

`Cc1ncc(NC(=O)Cc2ccc(-c3cnc(Nc4cnn(C5CC5)c4)nc3)cc2F)cc1C(F)(F)F` [Compound P-0239, 2-[4-[2-[(1-cyclopropylpyrazol-4-yl)amino]pyrimidin-5-yl]-2-fluoro-phenyl]-N-[6-methyl-5-(trifluoromethyl)-3-pyridyl]acetamide]: the half-inhibitory concentration (IC50) in assay [1] and in assay [2] was 0.0001 to 10 µM each time.

With `COc1ncc(NC(=O)Cc2ccc(-c3cnc(Nc4cnn(C(F)F)c4)nc3)cc2)cc1C(F)(F)F` [Compound P-0211, 2-[4-[2-[[1-(difluoromethyl)pyrazol-4-yl]amino]pyrimidin-5-yl]phenyl]-N-[6-methoxy-5-(trifluoromethyl)-3-pyridyl]acetamide], the IC50 in assay [1] and in assay [2] was 0.0001 to 10 µM each time.

For `CCn1cc(Nc2ncc(-c3ccc(CC(=O)Nc4cncc(C(F)(F)F)c4)c(F)c3)cn2)cn1` [Compound P-0258, 2-[4-[2-[(1-ethylpyrazol-4-yl)amino]pyrimidin-5-yl]-2-fluoro-phenyl]-N-[5-(trifluoromethyl)-3-pyridyl]acetamide], the half-inhibitory concentration (IC50) in assay [1] and in assay [2] was 0.0001 to 10 µM throughout.

As to `COc1ncc(NC(=O)Cc2ccc(-c3cnc4[nH]nc(OC)c4c3)cc2)cc1C(F)(F)F` [Compound P-0212, 2-[4-(3-methoxy-1H-pyrazolo[3,4-b]pyridin-5-yl)phenyl]-N-[6-methoxy-5-(trifluoromethyl)-3-pyridyl]acetamide], the IC50 in assay [1] and in assay [2] was 0.0001 to 10 µM throughout.

Take `CCOc1n[nH]c2ncc(-c3ccc(CC(=O)Nc4cnc(OC)c(C(F)(F)F)c4)cc3F)cc12` [Compound P-0202, 2-[4-(3-ethoxy-1H-pyrazolo[3,4-b]pyridin-5-yl)-3-fluoro-phenyl]-N-[6-methoxy-5-(trifluoromethyl)-3-pyridyl]acetamide]: the IC50 in assay [1] and in assay [2] was 0.0001 to 10 µM in each case.

Consider `COCCn1cc(Nc2ncc(-c3ccc(CC(=O)Nc4cc(C(F)(F)F)ccn4)c(F)c3)cn2)cn1` [Compound P-0270, 2-[2-fluoro-4-[2-[[1-(2-methoxyethyl)pyrazol-4-yl]amino]pyrimidin-5-yl]phenyl]-N-[4-(trifluoromethyl)-2-pyridyl]acetamide], for which the IC50 in assay [1] and in assay [2] was 0.0001 to 10 µM throughout.

`O=C(Cc1ccc(-c2cnc(Nc3cnn(C4CC4)c3)nc2)cc1F)Nc1ccc(C(F)(F)F)cn1` [Compound P-0243, 2-[4-[2-[(1-cyclopropylpyrazol-4-yl)amino]pyrimidin-5-yl]-2-fluoro-phenyl]-N-[5-(trifluoromethyl)-2-pyridyl]acetamide]: the IC50 in assay [1] and in assay [2] was 0.0001 to 10 µM each time.

Take `COCCn1cc(Nc2ncc(-c3ccc(CC(=O)Nc4ccc(C(F)(F)F)nc4)cc3)cn2)cn1` [Compound P-0273, 2-[4-[2-[[1-(2-methoxyethyl)pyrazol-4-yl]amino]pyrimidin-5-yl]phenyl]-N-[6-(trifluoromethyl)-3-pyridyl]acetamide]: the concentration for half-maximal inhibition (IC50) in assay [1] and in assay [2] was 0.0001 to 10 µM in each case.

On to `O=C(Cc1ccc(-c2cnc(Nc3cnn(C(F)F)c3)nc2)cc1)Nc1cncc(C(F)(F)F)c1` [Compound P-0209, 2-[4-[2-[[1-(difluoromethyl)pyrazol-4-yl]amino]pyrimidin-5-yl]phenyl]-N-[5-(trifluoromethyl)-3-pyridyl]acetamide], for which the half-inhibitory concentration (IC50) in assay [1] and in assay [2] was 0.0001 to 10 µM each time.

With `O=C(Cc1ccc(-c2cnc(Nc3cnn(C4CC4)c3)nc2)cc1F)Nc1cncc(C(F)(F)F)c1` [Compound P-0238, 2-[4-[2-[(1-cyclopropylpyrazol-4-yl)amino]pyrimidin-5-yl]-2-fluoro-phenyl]-N-[5-(trifluoromethyl)-3-pyridyl]acetamide], the IC50 in assay [1] and in assay [2] was 0.0001 to 10 µM throughout.

As for `CCn1cc(Nc2ncc(-c3ccc(CC(=O)Nc4ccc(C(F)(F)F)cn4)cc3)cn2)cn1` [Compound P-0251, 2-[4-[2-[(1-ethylpyrazol-4-yl)amino]pyrimidin-5-yl]phenyl]-N-[5-(trifluoromethyl)-2-pyridyl]acetamide], the 50% inhibitory concentration (IC50) in assay [1] and in assay [2] was 0.0001 to 10 µM throughout.

Consider `CCn1cc(Nc2ncc(-c3cc(F)c(CC(=O)Nc4cnc(OC)c(C(F)(F)F)c4)cc3F)cn2)cn1` [Compound P-0247, 2-[4-[2-[(1-ethylpyrazol-4-yl)amino]pyrimidin-5-yl]-2,5-difluoro-phenyl]-N-[6-methoxy-5-(trifluoromethyl)-3-pyridyl]acetamide], for which the IC50 in assay [1] and in assay [2] was 0.0001 to 10 µM in each case.

For `Cn1cnc(Nc2ncc(-c3ccc(CC(=O)Nc4cc(C(F)(F)F)ccn4)cc3F)cn2)c1` [Compound P-0018, 2-[3-fluoro-4-[2-[(1-methylimidazol-4-yl)amino]pyrimidin-5-yl]phenyl]-N-[4-(trifluoromethyl)-2-pyridyl]acetamide], the 50% inhibitory concentration (IC50) in assay [1] and in assay [2] was 0.0001 to 10 µM throughout.

As to `COc1ncc(NC(=O)Cc2ccc(-c3cnc4[nH]nc(NC(=O)C(F)(F)F)c4c3)cc2)cc1C(F)(F)F` [Compound P-0215, 2,2,2-trifluoro-N-[5-[4-[2-[[6-methoxy-5-(trifluoromethyl)-3-pyridyl]amino]-2-oxo-ethyl]phenyl]-1H-pyrazolo[3,4-b]pyridin-3-yl]acetamide], the IC50 in assay [1] and in assay [2] was 0.0001 to 10 µM in each case.

These data come from patent publication US10160747B2, “Compounds and methods for kinase modulation, and indications therefor” (Plexxikon Inc., priority 2016, dated 2018).
